Results as given in article PMC5454392, “Selective BET bromodomain inhibition as an antifungal therapeutic strategy” (Nature Communications, 2017).
Where “and” joins values, the source holds several entries; their conditions need not be identical. Identical values can stand only once. Entries after “also recorded” stand apart in the source; their conditions may differ. Like-named read-outs stand apart in the source and are kept apart here.

Tests used:
CaBdf1 BD1 [1] = target: T1, CaBdf1 BD1 (Candida albicans, UniProt Q5A4W8); test: Isothermal titration calorimetry (ITC); type: binding
T1 construct: made in house; host or cells: E. coli BL21(DE3)
Protocol: (§1) Proteins used for crystallization and for ITC. […] Cells were resuspended in buffer A (50 mM Tris-HCl pH 7.5, 300 mM NaCl, 10% glycerol, 25 mM imidazole, 5 mM β-mercaptoethanol and protease inhibitors) and lysed by sonication. The cleared lysate was incubated with Ni-NTA resin (Qiagen) and washed with buffer A containing 0.5 M NaCl. Proteins were eluted with 250 mM imidazole, dialysed overnight in the presence of His-tagged TEV protease against buffer A containing no imidazole and incubated with Ni-NTA resin to remove His-tagged species. Proteins were further purified on a Superdex 75 10/300 (GE Healthcare) column in 50 mM Hepes pH 7.5, 150 mM NaCl, 0.5 mM dithiothreitol (DTT). Proteins were concentrated to >20 mg ml^−1 on a Centricon device (Millipore) and used for ITC, TSA and crystallization experiments. […] Expression and purification were performed as above, except that buffer A was replaced by buffer B (50 mM Hepes pH 7.5, 500 mM NaCl, 5% glycerol, 5 mM imidazole and protease inhibitors) and gel filtration was performed in 10 mM Hepes pH 7.5, 500 mM NaCl and 5% glycerol.
(§2) Calorimetric experiments were performed on a NanoITC calorimeter (TA Instruments) at 25 °C while stirring at 250 r.p.m. All proteins were buffer exchanged by gel filtration into 50 mM Hepes pH 7.5, 150 mM NaCl, 0.5 mM DTT, except for SMARCA2 and SMARCA4A BDs, which were exchanged into 10 mM Hepes pH 7.5, 500 mM NaCl and 5% glycerol. […] Titrations consisted of an initial injection of 1.5 μl followed by 19 identical injections of 2.5 μl made at time intervals of 5 min. ITC data were corrected for the heat of dilution of injectant into buffer and analysed with software provided by the manufacturer using a single binding site model. The first data point was excluded from the analysis. Thermodynamic parameters determined from the ITC data are summarized in Supplementary Table 1.

SMARCA2 BD [2] = target: T2, SMARCA2 BD (Homo sapiens, UniProt P51531); test: Isothermal titration calorimetry (ITC); type: binding
T2 construct: Human SMARCA2 and SMARCA4 BD plasmids bearing an N-terminal His tag and TEV protease site; His tag with TEV site (N, cleaved yes); 73250; host or cells: E. coli BL21(DE3)
Protocol: as §1, §2

SMARCA4 BD = target: T3, SMARCA4 BD (Homo sapiens, UniProt P51532); test: Isothermal titration calorimetry (ITC); type: binding
T3 construct: Human SMARCA2 and SMARCA4 BD plasmids bearing an N-terminal His tag and TEV protease site; His tag with TEV site (N, cleaved yes); 74664; host or cells: E. coli BL21(DE3)
Protocol: as §1, §2

[3] = test system: 32 representative human (BET and non-BET) BDs; test: BROMOscan profiling (DiscoverX); type: binding; conditions: 10 μM; 35% of control used as cutoff for significant inhibition
Protocol: (§3) BROMOscan profiling was performed by DiscoverX (Fremont, CA, USA). […] Ligand-loading densities were optimized as described.

SMARCA2 BD [4] = target: T2, SMARCA2 BD; test: BROMOscan profiling (DiscoverX); type: binding; conditions: as read by reviewer from the BROMOscan data
Protocol: as §3

C. albicans = C. albicans growth assay in liquid media; type: cell-based
Protocol: Growth on liquid media. C. albicans strains were grown at 30 °C in SC medium to an OD600 of 0.5–0.8. For the evaluation of growth defects related to Bdf1 mutations, log-phase growing cells were counted using a Neubauer chamber and diluted in liquid media to a final concentration of 5,400 cells per ml per well in a sterile 96-well plate. Dox (50 μg ml^−1) or methionine (5 mM)/cysteine (0.25 mM) were added to the media if required. Plates were incubated at 30 °C and OD600 was measured using a Multiskan FC Microplate Photometer (Thermo Fisher). For the evaluation of chemical compounds, strains were grown in SC medium supplemented with 50 μg ml^−1 Dox or 5 mM methionine/0.25 mM cysteine 24 h before counting and then seeded in 96-well plates at the same concentration as mentioned above, with or without chemical compounds. Statistical tests were performed using two-sided Welch t-tests.

CaBdf1 BD1 [5] = target: T1, CaBdf1 BD1; type: binding; conditions: CaBdf1 BD1 WT; for Peptide array signal, raw data, Left: left replicate array; for Peptide array signal, raw data, Rigt: right replicate array
Protocol: (§4) In short, arrays were blocked and incubated with 1 μM of purified CaBdf1 BD1 or BD2. Arrays were incubated with recombinant BDs for 2 h at 4 °C in binding buffer (Tris-HCl 50 mM pH 7.4, NP-40 0.1%, NaCl 150 mM, glycerol 10%). […] Assays were performed in duplicate.

CaBdf1 BD1 Y248F = target: T4, CaBdf1 BD1 Y248F (Candida albicans, UniProt Q5A4W8, Y248F); test: Histone peptide microarray binding, YF mutant; parameters: species or system C. albicans; conditions: CaBdf1 BD1 YF mutant; for Peptide array signal, raw data, Left: left replicate array; for Peptide array signal, raw data, Right: right replicate array
T4 construct: made in house; host or cells: E. coli BL21(DE3), inferred from the wild-type GST construct
Protocol: (§5) In short, arrays were blocked and incubated with 1 μM of purified CaBdf1 BD1 or BD2. Arrays were incubated with recombinant BDs for 2 h at 4 °C in binding buffer (Tris-HCl 50 mM pH 7.4, NP-40 0.1%, NaCl 150 mM, glycerol 10%). […] Assays were performed in duplicate. Images were acquired on a Bio-Rad ChemiDoc XRS Imaging machine and data were quantified using the array analyser software provided by Active Motif.

CaBdf1 BD2 Y425F = target: T5, CaBdf1 BD2 Y425F (Candida albicans, UniProt Q5A4W8, Y425F); test: Histone peptide microarray binding, YF mutant; parameters: species or system C. albicans; conditions: CaBdf1 BD2 YF mutant; for Peptide array signal, raw data, Left: left replicate array; for Peptide array signal, raw data, Right: right replicate array
T5 construct: made in house; host or cells: E. coli BL21(DE3), inferred from the wild-type GST construct
Protocol: as §5

CaBdf1 BD2 [6] = target: T6, CaBdf1 BD2 (Candida albicans, UniProt Q5A4W8); test: HTRF assay, inhibition of BD binding to H4ac4 peptide; parameters: made in house; host or cells: E. coli BL21(DE3); conditions: HTRF
Target sequence in this assay (Q5A4W8 361-501): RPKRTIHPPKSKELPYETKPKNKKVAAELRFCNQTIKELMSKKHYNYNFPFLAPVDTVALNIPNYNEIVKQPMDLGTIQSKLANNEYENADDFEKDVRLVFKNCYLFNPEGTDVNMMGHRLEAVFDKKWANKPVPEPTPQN

CaBdf1 BD2 [7] = target: T6, CaBdf1 BD2; type: binding; parameters: made in house; host or cells: E. coli BL21(DE3); conditions: CaBdf1 BD2 WT; for Peptide array signal, raw data, Left: left replicate array; for Peptide array signal, raw data, Rigt: right replicate array
Protocol: as §4
Target sequence in this assay (Q5A4W8 361-501): as above

CaBdf1 BD2 [8] = target: T6, CaBdf1 BD2; test: Isothermal titration calorimetry (ITC); type: binding; parameters: His tag with TEV site (N, cleaved yes); made in house; host or cells: E. coli BL21(DE3); conditions: ITC
Protocol: as §1, §2
Target sequence in this assay (Q5A4W8 386-491): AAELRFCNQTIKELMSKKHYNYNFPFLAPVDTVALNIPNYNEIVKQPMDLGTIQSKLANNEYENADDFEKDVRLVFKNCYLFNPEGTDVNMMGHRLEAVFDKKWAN

human Brd4 BD1 [9] = target: T7, human Brd4 BD1 (Homo sapiens, UniProt O60885); test: BROMOscan profiling (DiscoverX); type: binding; parameters: purchased DiscoverX; host or cells: T7 phage grown in an E. coli host derived from BL21; conditions: 10 μM; as read by reviewer from the BROMOscan data
Protocol: as §3

human Brd4 BD1 [10] = target: T7, human Brd4 BD1; test: HTRF assay, inhibition of BD binding to H4ac4 peptide; parameters: human Brd4 BD1 (residues 22–204); His tag with TEV site (N, cleaved yes); made in house; host or cells: E. coli BL21(DE3)
human Brd4 BD1 [11] = target: T7, human Brd4 BD1; test: Isothermal titration calorimetry (ITC); type: binding; parameters: human Brd4 BD1 (residues 22–204); His tag with TEV site (N, cleaved yes); made in house; host or cells: E. coli BL21(DE3)
Protocol: as §1, §2

CaBdf1 BD1 [12] = target: T1, CaBdf1 BD1; test: HTRF assay, inhibition of BD binding to H4ac4 peptide; parameters: species or system C. albicans
[13] = test system: 32 representative human (BET and non-BET) BDs; parameters: method as in earlier work; conditions: cited from earlier work

T4 sequence (Q5A4W8 193-327 Y248F): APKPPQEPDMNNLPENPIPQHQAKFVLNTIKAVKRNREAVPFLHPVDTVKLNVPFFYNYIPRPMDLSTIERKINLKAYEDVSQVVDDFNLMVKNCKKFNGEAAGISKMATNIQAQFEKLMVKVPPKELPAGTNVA
T5 sequence (Q5A4W8 361-501 Y425F): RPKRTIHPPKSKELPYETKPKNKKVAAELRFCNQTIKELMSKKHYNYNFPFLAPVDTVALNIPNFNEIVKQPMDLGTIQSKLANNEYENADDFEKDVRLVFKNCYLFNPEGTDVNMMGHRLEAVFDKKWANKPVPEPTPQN
T2 sequence (P51531 1378-1506 limits assumed): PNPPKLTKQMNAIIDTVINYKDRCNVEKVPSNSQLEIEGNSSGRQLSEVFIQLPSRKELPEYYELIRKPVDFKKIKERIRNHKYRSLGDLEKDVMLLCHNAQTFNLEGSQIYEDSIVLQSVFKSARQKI
T1 sequence (Q5A4W8 193-327): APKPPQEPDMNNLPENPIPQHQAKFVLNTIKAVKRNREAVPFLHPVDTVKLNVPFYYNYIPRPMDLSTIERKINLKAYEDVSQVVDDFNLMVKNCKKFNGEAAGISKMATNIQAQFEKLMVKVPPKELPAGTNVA
T3 sequence (P51532 1453-1564 limits assumed): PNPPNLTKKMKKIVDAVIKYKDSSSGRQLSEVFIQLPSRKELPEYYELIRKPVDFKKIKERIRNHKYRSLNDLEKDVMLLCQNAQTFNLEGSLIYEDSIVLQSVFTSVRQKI

O=C1c2ccccc2Sc2cc(-c3noc(-c4cnccn4)n3)ccc2N1C1CC1 [Compound 1]
N (stoichiometry) (CaBdf1 BD1 [1]; ITC, 25 °C): 0.91 ± 0.06 | TΔS (CaBdf1 BD1 [1]; ITC, 25 °C): 20.44 kJ/mol | ΔH (CaBdf1 BD1 [1]; ITC, 25 °C): -9.8 ± 2.6 kJ/mol | binding to SMARCA2 BD (in words) (SMARCA2 BD [2]): no detectable binding; also recorded: did not detectably bind | binding to SMARCA4 BD (in words) (SMARCA4 BD): no detectable binding; also recorded: did not detectably bind | activity against human BDs in BROMOscan (in words) [3]: no significant inhibition was detected; also recorded: no significant activity; also recorded: do not significantly inhibit | inhibition at 10 µM (SMARCA2 BD [4]): ~65% | antifungal activity against mutant strains in which either BD1 or BD2 was inactivated (in words) (C. albicans; liquid media, WT allele repressed): little antifungal activity; also recorded: did not significantly inhibit growth | Peptide array signal, Normalized (0 to 100%), Average (CaBdf1 BD1 [5]): 0% | Peptide array signal, raw data, Left (CaBdf1 BD1 [5]): 0 | Peptide array signal, raw data, Rigt (CaBdf1 BD1 [5]): 0.003741 | Peptide array signal, raw data, Left (CaBdf1 BD1 Y248F): 0 | Peptide array signal, raw data, Right (CaBdf1 BD1 Y248F): 0.001715 | Peptide array signal, raw data, Left (CaBdf1 BD2 Y425F): 0 | Peptide array signal, raw data, Right (CaBdf1 BD2 Y425F): 0.001456 | inhibition of CaBdf1 BD2 (in words) (CaBdf1 BD2 [6]): no or only modest binding and inhibition | Peptide array signal, Normalized (0 to 100%), Average (CaBdf1 BD2 [7]): 0.259% | Peptide array signal, raw data, Left (CaBdf1 BD2 [7]): 0.004804 | Peptide array signal, raw data, Rigt (CaBdf1 BD2 [7]): 0.01167 | binding to CaBdf1 BD2 (in words) (CaBdf1 BD2 [8]): no or only modest binding and inhibition | inhibition in BROMOscan (in words) (human Brd4 BD1 [9]): hardly inhibits | IC50 (human Brd4 BD1 [10]; HTRF, H4ac4 peptide): ~40 µM | inhibition of Brd4 BD1 (in words) (human Brd4 BD1 [10]; HTRF, highest concentration 20 μM): no or only modest binding and inhibition | binding to Brd4 BD1 (in words) (human Brd4 BD1 [11]; ITC): no or only modest binding and inhibition

CN1C(=O)c2ccccc2Sc2cc(NC(=O)C3CCCO3)ccc21 (stereo not shown) [Compound 3]
inhibition of CaBdf1 BD1 (in words) (CaBdf1 BD1 [12]; HTRF): low-micromolar affinity | IC50 for Brd4 BD1 relative to IC50 for CaBdf1 BD1 (CaBdf1 BD1 [12]; HTRF IC50 ratio): 7 fold | IC50 (CaBdf1 BD1 [12]; HTRF, H4ac4 peptide, read-out: IC50): 1700 ± 600 nM | Kd (CaBdf1 BD1 [1]): 4.8 ± 0.2 µM | N (stoichiometry) (CaBdf1 BD1 [1]; ITC, 25 °C): 1.05 ± 0.03 | TΔS (CaBdf1 BD1 [1]; ITC, 25 °C): 1.84 kJ/mol | ΔG (CaBdf1 BD1 [1]; ITC, 25 °C): -30.34 kJ/mol | ΔH (CaBdf1 BD1 [1]; ITC, 25 °C): -28.5 ± 0.5 kJ/mol | EC50 (C. albicans; Candida albicans, read-out: cellular EC50): 35 ± 7 µM | growth of strains expressing WT Bdf1 or Bdf1 inactivated in BD1 (functional BD2) (in words) (C. albicans; liquid culture, Met/Cys or Dox): little effect; also recorded: insensitive | growth of strains inactivated in BD2 (bdf1-bd2Δ, bdf1-Y425F) (in words) (C. albicans; liquid culture, Met/Cys or Dox): significantly inhibited; also recorded: compromises the in vitro growth; also recorded: sensitive | Peptide array signal, Normalized (0 to 100%), Average (CaBdf1 BD1 [5]): 0.0363% | Peptide array signal, raw data, Left (CaBdf1 BD1 [5]): 0.001069 | Peptide array signal, raw data, Rigt (CaBdf1 BD1 [5]): 0.003207 | Peptide array signal, raw data, Left (CaBdf1 BD1 Y248F): 0.004458 | Peptide array signal, raw data, Right (CaBdf1 BD1 Y248F): 0.001715 | Peptide array signal, raw data, Left (CaBdf1 BD2 Y425F): 0.001942 | Peptide array signal, raw data, Right (CaBdf1 BD2 Y425F): 0.002427 | Peptide array signal, Normalized (0 to 100%), Average (CaBdf1 BD2 [7]): 0.296% | Peptide array signal, raw data, Left (CaBdf1 BD2 [7]): 0.005491 | Peptide array signal, raw data, Rigt (CaBdf1 BD2 [7]): 0.01167 | IC50 (human Brd4 BD1 [10]): 12.5 ± 0.8 µM | Kd (human Brd4 BD1 [11]): 13.4 ± 1.7 µM | N (stoichiometry) (human Brd4 BD1 [11]; ITC, 25 °C): 0.92 ± 0.03 | TΔS (human Brd4 BD1 [11]; ITC, 25 °C): 13.00 kJ/mol | ΔG (human Brd4 BD1 [11]; ITC, 25 °C): -27.80 kJ/mol | ΔH (human Brd4 BD1 [11]; ITC, 25 °C): -14.8 ± 1.9 kJ/mol

Cc1sc2c(c1C)C(c1ccc(Cl)cc1)=N[C@@H](CC(=O)NCCCCNC(=O)COc1cccc3c1C(=O)N(C1CCC(=O)NC1=O)C3=O)c1nnc(C)n1-2 (stereo partly shown) [dBET1]
BROMOscan signal, percent of control ([13]; CREBBP, EP300, FALZ and SMARCA4): 25-35% | BROMOscan signal, percent of control ([13]; six BET BDs): 0% | BROMOscan signal, percent of control ([13]; the other two BET BDs): 0.25% and 1.6% | BROMOscan signal, percent of control ([13]; the remaining BDs): > 35%
